In US9732075B2, “Benzimidazole-proline derivatives” (IDORSIA PHARMACEUTICALS LTD, priority 2012, dated 2017):

What was measured:
human orexin-1 receptor = human orexin-1 receptor (Homo sapiens (Human), UniProt O43613); assay: In vitro assay: intracellular calcium measurements (FLIPR), antagonistic activity; type: cell-based; details: CHO cells expressing human orexin-1 receptor, orexin-A agonist, geometric mean, read-out: IC50 Ox1
Method in brief: (§1)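 IC50s are geometric means, possibly reference-normalized, from FLIPR calcium peaks in CHO cells bearing human orexin-1 or orexin-2 receptor. Fluo-4 AM/probenecid-loaded cells received antagonist for 120 min before challenge with orexin-A (final 3 nM, ~EC70), with responses compared against vehicle controls.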

human orexin-2 receptor = human orexin-2 receptor (Homo sapiens (Human), UniProt O43614); assay: as above; type: cell-based; details: CHO cells expressing human orexin-2 receptor, orexin-A agonist, geometric mean, read-out: IC50 Ox2
human orexin-2 receptor, sequence (O43614 whole entry): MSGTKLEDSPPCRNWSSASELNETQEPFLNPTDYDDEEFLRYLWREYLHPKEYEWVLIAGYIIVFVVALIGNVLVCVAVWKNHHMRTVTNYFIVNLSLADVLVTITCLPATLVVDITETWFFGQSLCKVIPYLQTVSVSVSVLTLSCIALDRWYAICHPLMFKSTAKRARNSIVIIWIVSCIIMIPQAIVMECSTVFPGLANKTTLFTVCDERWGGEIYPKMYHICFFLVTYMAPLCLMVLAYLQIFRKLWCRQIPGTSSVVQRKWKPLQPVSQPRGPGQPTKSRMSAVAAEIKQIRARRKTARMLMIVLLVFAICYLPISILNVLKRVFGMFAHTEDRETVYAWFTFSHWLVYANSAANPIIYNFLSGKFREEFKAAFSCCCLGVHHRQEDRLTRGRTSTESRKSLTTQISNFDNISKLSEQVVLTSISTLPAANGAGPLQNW
Method in brief: as §1

human orexin-1 receptor, sequence (O43613 whole entry): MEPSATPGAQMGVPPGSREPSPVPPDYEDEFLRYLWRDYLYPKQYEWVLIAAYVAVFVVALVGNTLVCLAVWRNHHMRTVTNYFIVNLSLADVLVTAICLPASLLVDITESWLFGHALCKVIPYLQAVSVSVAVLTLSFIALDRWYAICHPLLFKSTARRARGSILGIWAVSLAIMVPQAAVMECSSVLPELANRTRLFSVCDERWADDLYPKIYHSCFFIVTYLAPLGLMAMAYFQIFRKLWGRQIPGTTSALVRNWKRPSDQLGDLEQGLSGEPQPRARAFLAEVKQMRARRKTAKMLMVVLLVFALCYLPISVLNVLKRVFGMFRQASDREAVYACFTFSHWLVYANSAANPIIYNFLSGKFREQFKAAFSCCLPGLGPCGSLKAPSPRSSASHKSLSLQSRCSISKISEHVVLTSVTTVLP

Structure (SMILES) | IC50 (human orexin-1 receptor) [nM] | IC50 (human orexin-2 receptor) [nM]
Cc1nc(C(=O)N2CC(F)(F)C[C@H]2c2nc3c(C)cccc3[nH]2)c(-c2ccccc2)s1 [Ex. 2.4] | 425 | 131
Cc1c(Cl)ccc2[nH]c([C@@H]3[C@@H](C)CCN3C(=O)c3c(F)cccc3-c3ncccn3)nc12 [Ex. 4.177] | 9 | 219
Cc1nc(C(=O)N2CCCC2c2nc3c(Cl)cc(C(F)(F)F)cc3[nH]2)c(-c2ccccc2)s1 (stereo not drawn) [Ex. 1.125] | 39 | 73
Cc1nc(C(=O)N2CC[C@H](C)[C@H]2c2nc3c(C)c(Cl)ccc3[nH]2)c(-c2cccc(Cl)c2)s1 [Ex. 4.21] | 1 | 133
CSc1cccc2nc([C@@H]3CCCN3C(=O)c3ccccc3-c3ccc(C)c(C)c3)[nH]c12 [Ex. 1.75] | 5 | 9
CSc1ccc2nc([C@@H]3CCCN3C(=O)c3cnc(C)nc3-c3ccc(Cl)c(Cl)c3)[nH]c2c1 [Ex. 1.49] | 32 | 42
CO[C@H]1CN(C(=O)c2cc(C)ccc2-n2nccn2)C(C)(c2nc3c(C)c(Cl)ccc3[nH]2)C1 (stereo partly drawn) [Ex. 3.25] | 5 | 7
COc1cccc2[nH]c([C@@H]3[C@@H](C)CCN3C(=O)c3cc(C)ccc3-n3nccn3)nc12 [Ex. 4.31] | 77 | 774
CSc1cccc2[nH]c([C@@H]3CCCN3C(=O)c3nc(C)ccc3-n3nccn3)nc12 [Ex. 1.175] | 528 | 76
CSc1ccc2nc([C@@H]3CCCN3C(=O)c3cc(Cl)ccc3-n3nccn3)[nH]c2c1 [Ex. 1.149] | 143 | 9
Cc1nc(C(=O)N2CCCC2c2nc3c(Br)cc(F)cc3[nH]2)c(-c2ccccc2)s1 (stereo not drawn) [Ex. 1.138] | 35 | 109
Cc1cc2[nH]c([C@@H]3[C@@H](C)CCN3C(=O)c3c(-c4ccccc4)ccc(C)c3F)nc2cc1Cl [Ex. 4.115] | 7 | 754
CO[C@H]1CN(C(=O)c2cc(C)ccc2-n2cccn2)C(C)(c2nc3c(C)c(Cl)ccc3[nH]2)C1 (stereo partly drawn) [Ex. 3.53] | 10 | 20
Cc1ccc(-n2nccn2)c(C(=O)N2CCC[C@@]2(C)c2nc3cc(C(F)(F)F)ccc3[nH]2)c1 [Ex. 5.9] | 8 | 81
Cc1ccc(C(=O)N2CC[C@H](C)[C@H]2c2nc3cc(Cl)c(C)cc3[nH]2)c(-n2nccn2)c1 [Ex. 4.72] | 4 | 51
CSc1ccc2[nH]c([C@@H]3CCCN3C(=O)c3nc(C)ccc3-n3nccn3)nc2c1 [Ex. 1.180] | 1490 | 50
COc1cccc(-c2sc(C)nc2C(=O)N2CC[C@H](C)[C@H]2c2nc3c(Cl)cccc3[nH]2)c1 [Ex. 4.121] | 6 | 475
COc1ccccc1-c1sc(C)nc1C(=O)N1CC[C@H](C)[C@H]1c1nc2c(C(F)(F)F)cccc2[nH]1 [Ex. 4.156] | 14 | 489

Results, then the molecule that gave them:

IC50 (human orexin-1 receptor) [nM] | IC50 (human orexin-2 receptor) [nM] | Structure (SMILES)
21 | 49 | COc1cc2nc([C@]3(C)CCCN3C(=O)c3cc(C)c(C)cc3-n3nccn3)n(C)c2cc1OC [Ex. 7.13]
192 | 166 | COc1cc2nc([C@]3(C)CCCN3C(=O)c3ccccc3-c3ccc(C)cc3)[nH]c2cc1OC [Ex. 5.88]
385 | 556 | Cc1ccc(-c2ccc(F)cc2C)c(C(=O)N2CCC[C@@]2(C)c2nc3cc(C(F)(F)F)ccc3[nH]2)c1 [Ex. 5.181]
15 | 178 | Cc1ccc(-n2nccn2)c(C(=O)N2CCC[C@@]2(C)c2nc3cc(F)c(Br)cc3[nH]2)n1 [Ex. 5.131]
28 | 42 | COc1ccc(-c2ccc(C)cc2)c(C(=O)N2CCC[C@@]2(C)c2nc3ccc(Cl)c(C)c3[nH]2)c1F [Ex. 5.302]
200 | 154 | COc1cc2nc([C@]3(C)CCCN3C(=O)c3cc(F)ccc3-n3nccn3)[nH]c2cc1OC [Ex. 5.65]
1970 | 76 | C=C1C[C@@H](c2nc3cc(OC)ccc3[nH]2)N(C(=O)c2ccccc2-c2csc(C)n2)C1 [Ex. 6.21]
25 | 35 | Cc1cccc(-c2ccccc2C(=O)N2CCC[C@@]2(C)c2nc3c(C)c(C)ccc3[nH]2)c1 [Ex. 5.118]
16 | 115 | COCCn1c([C@]2(C)CCCN2C(=O)c2cc(C)ccc2-c2cccc(F)c2)nc2cc(C)c(C)cc21 [Ex. 7.36]
405 | 388 | Cc1ccc(-c2cccc(C)c2C)c(C(=O)N2CCC[C@@]2(C)c2nc3cc(C(F)(F)F)c(Cl)cc3[nH]2)c1 [Ex. 5.161]
44 | 106 | COCCn1c([C@]2(C)CCCN2C(=O)c2cc(C)ccc2-c2ccc(C)cc2)nc2cc(C)c(C)cc21 [Ex. 7.41]
64 | 570 | COc1ccc(-n2nccn2)c(C(=O)N2CCC[C@@]2(C)c2nc3cc(C(F)(F)F)ccc3[nH]2)c1F [Ex. 5.168]
13 | 129 | Cc1ccc(-n2nccn2)c(C(=O)N2CCC[C@@]2(C)c2nc3cc(Br)ccc3[nH]2)c1 [Ex. 5.8]
5 | 20 | C=C1CN(C(=O)c2nc(N(C)C)sc2-c2cccc(Cl)c2)C(C)(c2nc3cc(OC)ccc3[nH]2)C1 (stereo not drawn) [Ex. 6.152]
6 | 31 | Cc1ccc(-n2nccn2)c(C(=O)N2CCC[C@@]2(C)c2nc3cc(C(C)(C)C)ccc3[nH]2)c1 [Ex. 5.13]
38 | 28 | COc1cccc(-c2ccc(C)cc2C(=O)N2CCC[C@@]2(C)c2nc3cc(C)c(C)cc3n2C)c1 [Ex. 7.42]
20 | 1 | C=C1C[C@@H](c2nc3ccc(Cl)c(C)c3[nH]2)N(C(=O)c2cc(Cl)ccc2-n2nccn2)C1 [Ex. 6.128]
35 | 159 | COc1ccccc1-c1ccc(C)cc1C(=O)N1CCC[C@@]1(C)c1nc2cc(C(F)(F)F)c(Cl)cc2[nH]1 [Ex. 5.148]
20 | 62 | C[C@@]1(c2nc3cc(F)c(Br)cc3[nH]2)CCCN1C(=O)c1cc(Cl)ccc1-n1nccn1 [Ex. 5.129]
2 | 10 | Cc1ccc(-n2cccn2)c(C(=O)N2CCC[C@@]2(C)c2nc3cc(C(F)(F)F)c(Cl)cc3[nH]2)c1 [Ex. 5.138]
24 | 28 | Cc1cc2nc([C@]3(C)CCCN3C(=O)c3ccccc3-c3cccc(F)c3)[nH]c2cc1C [Ex. 5.105]
17 | 21 | COc1ccc(-c2ccc(F)cc2)c(C(=O)N2CCC[C@@]2(C)c2nc3ccc(Cl)c(C)c3[nH]2)c1F [Ex. 5.299]
310 | > 2590 | Cc1ccc(-c2ccc(OC(F)(F)F)cc2)c(C(=O)N2CCC[C@@]2(C)c2nc3cc(C(F)(F)F)ccc3[nH]2)c1 [Ex. 5.187]
15 | 0.7 | C=C1C[C@@H](c2nc3cccc(C)c3[nH]2)N(C(=O)c2nc(C)sc2-c2cccc(C(F)(F)F)c2)C1 [Ex. 6.112]
56 | 22 | COc1cc2nc([C@]3(C)CCCN3C(=O)c3cc(C(F)(F)F)ccc3-n3nccn3)[nH]c2cc1OC [Ex. 5.71]
62 | 177 | COc1ccccc1-c1ccc(C)cc1C(=O)N1CCC[C@@]1(C)c1nc2cc(C)c(C)cc2[nH]1 [Ex. 5.92]
2 | 13 | Cc1cc(C(=O)N2CCC[C@@]2(C)c2nc3cc(C(F)(F)F)ccc3[nH]2)c(-n2nccn2)cc1C [Ex. 5.170]
